Results reported in US11629055B2, “Magnesium phosphate hydrogels” (INViCARE INC., priority 2015, dated 2023).

Columns and labels:
[1] = In vitro drug release of mepivacaine (dialysis tube, PBS, 37° C., UV-Vis); assay type: physicochemical
Protocol: For the in vitro drug release, mepivacaine hydrochloride was dissolved in 1 mL of gel previously prepared to reach different mepivacaine concentration. The pH of the resulting thixotropic colloidal suspension before the addition of mepivacaine was 7.95, while after the addition of the drug changed to 7.1. The gel+mepivacaine was placed in a Pur-L-Lyzer™ dialysis tube with a molecular weight cut-off of 12000 Da, while the control group is represented by the mepivacaine dissolved in PBS (2% w/v) and placed in a dialysis tubes with the same molecular weight cut-off. The tubes were incubated in 30 mL of phosphate buffer saline solution (PBS) at 37° C., and the solution was changed at different time points comprised between 0 and 168 hours. In order to calculate the amount of drug released, the extracted solutions were analyzed with UV-Vis spectroscopy following the absorption of mepivacaine at 263 nm. All experiments were done in triplicates.

mice tibial fracture = assay: Mice tibial fracture model (guarding, weight bearing, micro-CT, three point bending); assay type: in vivo; conditions: three point bending test, two weeks following fracture
Protocol: The effects of NMP alone, NMP combined with mepivacaine and mepivacaine alone, on post-fracture mobilization, postoperative pain and bone healing were assessed in vivo using a standardized mice tibial fracture model (St-Arnaud, The Journal of steroid biochemistry and molecular biology 121, 254-256 (2010)). Thirty-two mice were randomly assigned into four groups (n=8, each); saline, mepivacaine, NMP and NMP+mepivacaine. Thirty minutes prior to surgical intervention, each mouse was injected with Carprofen (20 mg/kg; SC).
The animal was then anesthetized with isoflurane (3-5% at the induction time and 2-2.5% during the maintenance period). […] A longitudinal skin incision was made in order to expose the right patellar tendon. […]
Post-operative Animals' pain perception and locomotion were evaluated, at different time point; […], 3 days, one week and two weeks post fracture, by assessing mice guarding (Yasuda et al., Journal of pain research 6, 161 (2013)) and weight bearing per each leg, respectively. […] Guarding behavior was assessed as following; each mouse was placed individually in a clear plastic box on an elevated stainless steel mesh. […]
Weight bearing test was performed as following; an incapacitance meter (IITC.inc, CA, US) was used for determination of hind paw weight distribution. […] The weight exerted by each hind limb was measured and averaged over a period of 5 seconds. […]

total release of drug ([1]; after 8 hours, PBS, 37° C.): 90±5% | stability of mepivacaine in contact with the gel (UV-Vis spectra) ([1]; after 24 hours from the beginning of the release experiment): molecular integrity of the drug
Compound: Cc1cccc(C)c1NC(=O)C1CCCCN1C (stereo not drawn) [mepivacaine]
force to fracture, fractured versus non-fractured tibia (mice tibial fracture): significantly different
